Consider 8 molecules from PubChem BioAssay (NCI).

Some test systems named below: HT29 colon; SNB-75 CNS; COLO 205 colon; EKVX NSCLC; OVCAR-5 ovarian; ACHN renal; SNB-19 CNS; MOLT-4 leukemia; RXF 393 renal.
Common to all, as to assay: NCI tumour cell line growth inhibition, 48 h

Each structure is given as a SMILES string.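 In this assay, cells in 96-well plates receive the compound at five concentrations for 48 hours. Endpoints are linearly interpolated between the surrounding concentrations. At the GI50, growth is halved. The concentration for full growth arrest is given as TGI.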 Bounds are passed on as bounds.

In the case of `CC/C=C\C[C@H](F)C/C=C1/C(=O)C=C[C@@H]1C/C=C\CCCC(=O)O`, the GI50 was 5.4 µM with HT29 colon; 12.5 µM in the test on SNB-75 CNS; 5.3 µM in the test on COLO 205 colon; 7.59 µM in the test with EKVX NSCLC; 8.18 µM in the test on OVCAR-5 ovarian; 4.99 µM in the test on ACHN renal. Besides, the figures for the GI50 with SNB-19 CNS, in the test with MOLT-4 leukemia and with RXF 393 renal were 7.31 µM, 1.14 µM and 5.19 µM, respectively. The TGI in the test on HT29 colon is 15 µM; with SNB-75 CNS, above 32.5 µM; in the test on COLO 205 colon, 12.2 µM; in the test with EKVX NSCLC, 25.1 µM; with OVCAR-5 ovarian, 21 µM; with ACHN renal, 9.85 µM. For the same molecule, the values for the TGI in the test with SNB-19 CNS, in the test with MOLT-4 leukemia and in the test on RXF 393 renal were 25.4 µM, 12 µM and 10.2 µM, respectively.

On to `COc1cc2cc(Oc3ccc(NC(=O)Nc4ccc(Cl)c(C(F)(F)F)c4)cc3)c(C)nc2cc1OCCN1CCOCC1`, for which the GI50 with HT29 colon was 2.57 µM; in the test on SNB-75 CNS, 1.65 µM; in the test on COLO 205 colon it was 1.63 µM; in the test with EKVX NSCLC, 2.07 µM; in the test on OVCAR-5 ovarian it was 4.02 µM; with ACHN renal, 2.03 µM. Moreover, the GI50 in the test with SNB-19 CNS is 3.23 µM; in the test with MOLT-4 leukemia, 1.48 µM; with RXF 393 renal, 1.77 µM. Further, the TGI with HT29 colon was 11.2 µM; with SNB-75 CNS, 7.05 µM; with COLO 205 colon it was 3.78 µM; with EKVX NSCLC, 13.7 µM; in the test with OVCAR-5 ovarian, 65.2 µM; in the test on ACHN renal it was 11.6 µM. In addition, the results for the TGI in the test with SNB-19 CNS, in the test with MOLT-4 leukemia and in the test on RXF 393 renal were 19.8 µM, 10.5 µM and 3.99 µM, respectively.

With `O=S(=O)(NC1=NCCN1C(=S)SN1CCn2c1nsc2=S)c1cccc(Cl)c1`, the GI50 in the test on HT29 colon is 20.5 µM; with SNB-75 CNS it was 29.2 µM; in the test with COLO 205 colon it was 7.48 µM; in the test with EKVX NSCLC it was 38.7 µM; with OVCAR-5 ovarian it was 19.7 µM; in the test on ACHN renal it was 13.8 µM. The values for the GI50 in the test with SNB-19 CNS, in the test on MOLT-4 leukemia and in the test with RXF 393 renal were 19.1 µM, 12.8 µM and 4.04 µM, respectively. The TGI is 74 µM in the test on HT29 colon; 55.6 µM with SNB-75 CNS; 20.7 µM with COLO 205 colon; above 100 µM in the test with EKVX NSCLC; 39.2 µM with OVCAR-5 ovarian; 30.6 µM with ACHN renal. For the same molecule, the values for the TGI in the test on SNB-19 CNS, in the test on MOLT-4 leukemia and in the test on RXF 393 renal were 44.4 µM, above 100 µM and 21.6 µM, respectively.

As for `Nc1nccc(-c2c(-c3ccc(F)cc3)ncn2C2CCC(O)CC2)n1` (configuration not stated), the GI50 in the test on HT29 colon was 6.8 µM; in the test on SNB-75 CNS, 6.61 µM; in the test on COLO 205 colon, 7.1 µM; with EKVX NSCLC it was 8.57 µM; in the test on OVCAR-5 ovarian, 8.45 µM; in the test on ACHN renal, 2.83 µM. In addition, the GI50 in the test with SNB-19 CNS is 15.6 µM; with MOLT-4 leukemia it was 22.5 µM; in the test with RXF 393 renal it was 4.77 µM. In addition, the TGI in the test on HT29 colon was above 25 µM; with SNB-75 CNS it was above 21 µM; in the test with COLO 205 colon it was above 25 µM; with EKVX NSCLC, above 25 µM; with OVCAR-5 ovarian, above 25 µM; with ACHN renal, above 25 µM. Besides, the TGI is above 25 µM in the test with SNB-19 CNS, above 25 µM in the test on MOLT-4 leukemia and above 23.8 µM with RXF 393 renal.

Take `Cc1cccc(C(C)C)c1NC(=O)/C(Cc1c([N+](=O)[O-])cccc1[N+](=O)[O-])=N/NC(=O)CC#N`: the TGI in the test with HT29 colon, in the test with SNB-75 CNS, with COLO 205 colon, in the test with EKVX NSCLC, in the test with OVCAR-5 ovarian and in the test on ACHN renal was above 100 µM in each case. Besides, the TGI in the test on SNB-19 CNS, in the test with MOLT-4 leukemia and in the test with RXF 393 renal was above 100 µM in each case.

On to `O=C(CC1(O)C(=O)Nc2c(Cl)ccc(Cl)c21)c1ccc(F)cc1` (configuration not stated), for which the TGI in the test on HT29 colon is above 100 µM; with SNB-75 CNS, 74.7 µM; with COLO 205 colon it was above 100 µM; with EKVX NSCLC, above 100 µM; with OVCAR-5 ovarian it was above 100 µM; in the test on ACHN renal it was above 100 µM. Moreover, the TGI with SNB-19 CNS was above 100 µM; in the test with MOLT-4 leukemia, 95.6 µM; in the test with RXF 393 renal, 92.2 µM.

Consider `O/N=C/c1ncccc1C1OCCO1`, for which the TGI in the test with HT29 colon, in the test on SNB-75 CNS, in the test on COLO 205 colon, in the test with EKVX NSCLC, in the test with OVCAR-5 ovarian and in the test with ACHN renal was above 100 µM throughout. Besides, the TGI in the test with SNB-19 CNS, in the test on MOLT-4 leukemia and with RXF 393 renal was above 100 µM in each case.

Consider `Cc1ccc2c(c1)Sc1c(ccc3ccccc13)N2`, for which the GI50 was 51.2 µM with HT29 colon; 15.5 µM in the test on SNB-75 CNS; 76.1 µM in the test with COLO 205 colon; above 100 µM with EKVX NSCLC; above 100 µM with OVCAR-5 ovarian; 55.5 µM in the test on ACHN renal. The figures for the GI50 with SNB-19 CNS, in the test with MOLT-4 leukemia and with RXF 393 renal were above 100 µM, 6.82 µM and above 100 µM, respectively. Besides, the TGI with HT29 colon, in the test with SNB-75 CNS, with COLO 205 colon, in the test with EKVX NSCLC, in the test on OVCAR-5 ovarian and with ACHN renal was above 100 µM throughout. Besides, the TGI with SNB-19 CNS, in the test on MOLT-4 leukemia and in the test on RXF 393 renal was above 100 µM throughout.
